From patent US8183238B2, “Bicyclic and tricyclic compounds as KAT II inhibitors” (priority 2009, dated 2012)
Like-named read-outs stand apart in the source and are kept apart here.

What was measured:
[1] = biological target: human KAT II (hKAT II) enzyme (Homo sapiens, UniProt Q8N5Z0); assay: KAT II Inhibition Spectra Assay; assay type: biochemical; conditions: Table 5; hKAT II, decrease in OD370, 37° C., 15-20 h; read-out: KATII IC50
Summary of the method: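 hKAT II (15 nM, 3× stock) converts L-kynurenine (3 mM, 3× stock) with α-ketoglutarate and PLP in Tris acetate; 15–20 h at 37 °C. Inhibition of the OD370 decrease read versus DMSO wells across a concentration range gives IC50.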

[2] = Prodrug in vivo pharmacokinetics in monkeys (plasma, LC-MS-MS); conditions: Cynomolgus, cynomolgus monkey, iv, 0.3 mg/kg, plasma exposure of Example 4 in monkeys following intravenous administration of Example 4 at 0.3 mg/kg
[3] = Prodrug in vivo pharmacokinetics in dogs (plasma, LC-MS-MS); set-up: species or system Dog (Beagle); conditions: Beagle, dog, in vivo, po, 1 mg/kg
Procedure: Test substances (Examples 4 and 71-73) were administered by oral gavage to groups of two dogs. Example 71 was also administered intravenously.
Blood samples were taken at various times after administration and submitted to analysis for the parent drug (Example 71) and pro-drug (Examples 72 and 73) using an LC-MS-MS assay. Pharmacokinetic parameters derived from the plasma analytical data were determined using Watson LIMS 7.2.003 (Thermo Fisher Scientific, Waltham, Mass.). The results are given in FIG. 1 and Tables 8, 9, 10, and 11.

[4] = Prodrug in vivo pharmacokinetics in monkeys (plasma, LC-MS-MS); set-up: species or system Monkey (Cynomolgus); conditions: Example 4 in monkey plasma after oral Example 4 (10 mg/kg active); for Cmax / Tmax / half-life / AUC: Cynomolgus, cynomolgus monkey, plasma, po, 10 mg/kg; for F: calculated using IV AUC of 265 ng · h/mL
Procedure: Test substances (Examples 4 and 71-73) were administered by oral gavage to groups of two monkeys.
Blood samples were taken at various times after administration and submitted to analysis for the parent drug (Example 4 and Example 71) and pro-drug (Examples 72 and 73) using an LC-MS-MS assay. […] Pharmacokinetic parameters derived from the plasma analytical data were determined using Watson LIMS 7.2.003 (Thermo Fisher Scientific, Waltham, Mass.). The results are given in FIG. 2 and Tables 13, 14, and 15.

[5] = Prodrug in vivo pharmacokinetics in rats (plasma, LC-MS-MS); conditions: Wistar-Han, rat
Procedure: Test substances (Examples 4, 73, and 366-369) were administered by oral gavage to groups of three rats.
Blood samples were taken at various times after administration and analyzed for the parent drug (Example 4) and prodrugs (Examples 73 and 366-369) using an LC-MS-MS assay. Pharmacokinetic parameters derived from the plasma analytical data were determined using Watson LIMS version 7.2.003 (Thermo Fisher Scientific, Waltham, Mass.).

human KAT II (hKAT II) enzyme, sequence (Q8N5Z0 30-425): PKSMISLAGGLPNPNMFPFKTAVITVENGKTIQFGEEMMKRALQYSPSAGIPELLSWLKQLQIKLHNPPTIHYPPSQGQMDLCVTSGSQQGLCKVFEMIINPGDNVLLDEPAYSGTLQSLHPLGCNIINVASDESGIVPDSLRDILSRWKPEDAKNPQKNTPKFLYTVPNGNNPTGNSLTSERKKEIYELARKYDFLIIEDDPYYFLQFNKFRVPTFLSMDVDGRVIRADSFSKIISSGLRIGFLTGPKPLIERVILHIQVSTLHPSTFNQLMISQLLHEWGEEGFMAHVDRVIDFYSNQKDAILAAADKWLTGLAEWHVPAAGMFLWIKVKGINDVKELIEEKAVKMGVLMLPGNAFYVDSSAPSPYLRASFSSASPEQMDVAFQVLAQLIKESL

For `N[C@H]1Cc2ccccc2N(O)C1=O` [Example 4, (3S)-3-amino-1-hydroxy-3,4-dihydroquinolin-2(1H)-one], the IC50 [1] was 37.5 nM, the AUC [2] was 265 ng·h/mL and the “AUC increase vs. oral administration of Ex. 4” value [3] was 1.0. It also gave a Cmax ([4]; Mean) of 220 ng/mL, a Tmax ([4]; Mean) of 41.4 min and a half-life ([4]; Mean) of 43.8 min. It also gave an AUC ([4]; Mean, read-out: AUC) of 181 ng·h/mL, an AUC ([4]; Mean, read-out: AUC Extrap) of 186 ng·h/mL and a Cmax ([4]; Monkey 1) of 200 ng/mL. It also gave a Tmax ([4]; Monkey 1) of 60 min, a half-life ([4]; Monkey 1) of 46.8 min and an AUC ([4]; Monkey 1, read-out: AUC) of 184 ng·h/mL. It also gave an AUC ([4]; Monkey 1, read-out: AUC Extrap) of 188 ng·h/mL, a Cmax ([4]; Monkey 2) of 340 ng/mL and a Tmax ([4]; Monkey 2) of 15 min. The half-life ([4]; Monkey 2) was 49.2 min, the AUC ([4]; Monkey 2, read-out: AUC) was 239 ng·h/mL and the AUC ([4]; Monkey 2, read-out: AUC Extrap) was 247 ng·h/mL. The Cmax ([4]; Monkey 3) was 206 ng/mL, the Tmax ([4]; Monkey 3) was 30 min and the half-life ([4]; Monkey 3) was 40.8 min. For the same compound, the AUC ([4]; Monkey 3, read-out: AUC) was 141 ng·h/mL, the AUC ([4]; Monkey 3, read-out: AUC Extrap) was 144 ng·h/mL and the Cmax ([4]; Monkey 4) was 133 ng/mL. For the same compound, the Tmax ([4]; Monkey 4) was 60 min, the half-life ([4]; Monkey 4) was 37.8 min and the AUC ([4]; Monkey 4, read-out: AUC) was 159 ng·h/mL. The AUC ([4]; Monkey 4, read-out: AUC Extrap) was 163 ng·h/mL, the “% AUC Extrap” value ([4]; Mean) was 2.46% and the “% AUC Extrap” value ([4]; Monkey 1) was 2.28%. For the same compound, the “% AUC Extrap” value ([4]; Monkey 2) was 3.05%, the “% AUC Extrap” value ([4]; Monkey 3) was 1.96% and the “% AUC Extrap” value ([4]; Monkey 4) was 2.56%. The F ([4]; Mean) was 2.1%, the F ([4]; Monkey 1) was 2.1% and the F ([4]; Monkey 2) was 2.8%. The F ([4]; Monkey 3) was 1.6%, the F ([4]; Monkey 4) was 1.8% and the “AUC increase vs. oral administration of Ex. 4” value [5] was 1.0.
